Results as given in article PMC7901654, “Bioisosteric Discovery of NPA101.3, a Second-Generation RET/VEGFR2 Inhibitor Optimized for Single-Agent Polypharmacology” (Journal of Medicinal Chemistry, 2020).

System: TT (RET/C634W), MZ-CRC-1 (RET/M918T), TPC-1 (CCDC6-RET)
Experiment: RET autophosphorylation and SHC/MAPK signalling in RET mutant human cancer cell lines
Type: cell-based
Conditions: 2 h treatment
Experimental: NPA101.3 inhibited RET autophosphorylation and signaling along the SHC/MAPK pathway in human cancer cell lines endogenously expressing RET oncogenic variants, including MTC cell lines, TT (RET/C634W) and MZ-CRC-1 (RET/M918T), and PTC cell line TPC-1 (CCDC6-RET); in the lung adenocarcinoma cell line Lc-2/ad (CCDC6-RET), only RET and SHC (but not MAPK) dephosphorylation was detectable (Figure S4).
Protein lysates were prepared according to standard procedures. Briefly, cells were lysed in a buffer containing 50 mM N-2-hydroxyethylpiperazine-N′-2-ethanesulfonic acid (HEPES; pH 7.5), 1% (v/v) Triton X-100, 150 mM NaCl, 5 mM EGTA, 50 mM NaF, 20 mM sodium pyrophosphate, 1 mM sodium vanadate, 2 mM phenylmethanesulfonyl fluoride (PMSF), and 1 μg/mL aprotinin. Lysates were clarified by centrifugation at 10000g for 15 min. […] Immune complexes were detected with the enhanced chemiluminescence kit (Amersham Pharmacia Biotech, Little Chalfont, U.K.). Anti-phospho-SHC (#Y317), which recognizes SHC protein when phosphorylated on Y317, was from Upstate Biotechnology Inc. (Lake Placid, NY). Anti-SHC (H-108) was from Santa Cruz Biotechnology (Santa Cruz, CA). Anti-MAPK (9101) and anti-phospho-MAPK (9102), specific for p42/44MAPK (ERK1/2) phosphorylated on Thr202/Tyr204, antibodies were from Cell Signaling Technologies (Danvers, MA). […]

CC(C)(C)c1cc(NC(=O)Cc2ccc(-n3cnc4cc(-c5ccc(S(C)(=O)=O)cc5)ccc43)cc2)no1 [NPA101.3]
RET autophosphorylation and signaling along the SHC/MAPK pathway: inhibited
